Measurements reported in PubChem BioAssay (NCI).
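Test compounds were applied to cells in 96-well plates for 48 hours at 5 doses. Abbreviation: GI50, concentration required for 50% inhibition of growth. At the TGI there is no net growth.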

How the values were obtained:
Experiment in all cases: DTP human tumour cell line panel, 48 h
ACHN renal = test system: ACHN renal
SR leukemia = test system: SR leukemia
IGROV1 ovarian = test system: IGROV1 ovarian
CCRF-CEM leukemia = test system: CCRF-CEM leukemia
SW-620 colon = test system: SW-620 colon
MCF7 breast = test system: MCF7 breast
OVCAR-3 ovarian = test system: OVCAR-3 ovarian
HS 578T breast = test system: HS 578T breast
SK-MEL-2 melanoma = test system: SK-MEL-2 melanoma
NCI-H23 lung = test system: NCI-H23 lung
SF-539 CNS = test system: SF-539 CNS
HCT-15 colon = test system: HCT-15 colon
LOX IMVI melanoma = test system: LOX IMVI melanoma
786-0 renal = test system: 786-0 renal
HCC-2998 colon = test system: HCC-2998 colon
A498 renal = test system: A498 renal
HCT-116 colon = test system: HCT-116 colon
MDA-MB-231 breast = test system: MDA-MB-231 breast
BT-549 breast = test system: BT-549 breast
SF-295 CNS = test system: SF-295 CNS
SNB-75 CNS = test system: SNB-75 CNS
SK-MEL-28 melanoma = test system: SK-MEL-28 melanoma
HL-60(TB) leukemia = test system: HL-60(TB) leukemia
SF-268 CNS = test system: SF-268 CNS
OVCAR-4 ovarian = test system: OVCAR-4 ovarian
A549 NSCLC = test system: A549 NSCLC
PC-3 prostate = test system: PC-3 prostate
NCI-H522 lung = test system: NCI-H522 lung
KM12 colon = test system: KM12 colon
HOP-62 NSCLC = test system: HOP-62 NSCLC
NCI-H226 lung = test system: NCI-H226 lung
SNB-19 CNS = test system: SNB-19 CNS
EKVX NSCLC = test system: EKVX NSCLC
SN12C renal = test system: SN12C renal
DU-145 prostate = test system: DU-145 prostate
U251 CNS = test system: U251 CNS
CAKI-1 renal = test system: CAKI-1 renal
RPMI-8226 leukemia = test system: RPMI-8226 leukemia
COLO 205 colon = test system: COLO 205 colon
T-47D breast = test system: T-47D breast
MOLT-4 leukemia = test system: MOLT-4 leukemia
HT29 colon = test system: HT29 colon
OVCAR-5 ovarian = test system: OVCAR-5 ovarian
MDA-MB-435 = test system: MDA-MB-435
TK-10 renal = test system: TK-10 renal
MALME-3M melanoma = test system: MALME-3M melanoma
SK-MEL-5 melanoma = test system: SK-MEL-5 melanoma
M14 melanoma = test system: M14 melanoma
HOP-92 NSCLC = test system: HOP-92 NSCLC
OVCAR-8 ovarian = test system: OVCAR-8 ovarian
UO-31 renal = test system: UO-31 renal
RXF 393 renal = test system: RXF 393 renal
K-562 leukemia = test system: K-562 leukemia
NCI-H460 lung = test system: NCI-H460 lung
UACC-62 melanoma = test system: UACC-62 melanoma
UACC-257 melanoma = test system: UACC-257 melanoma
SK-OV-3 ovarian = test system: SK-OV-3 ovarian
NCI/ADR-RES ovarian = test system: NCI/ADR-RES ovarian

c1cc[n+](C2c3ccccc3C([n+]3ccccc3)c3ccccc32)cc1 (stereo unspecified)
GI50 (ACHN renal): > 100 µM | TGI (ACHN renal): > 100 µM | GI50 (SR leukemia): 7.64 µM | TGI (SR leukemia): > 100 µM | GI50 (IGROV1 ovarian): 1.96 µM | TGI (IGROV1 ovarian): > 82.8 µM | GI50 (CCRF-CEM leukemia): 10.7 µM | TGI (CCRF-CEM leukemia): > 100 µM | GI50 (SW-620 colon): 8.52 µM | TGI (SW-620 colon): > 100 µM | GI50 (MCF7 breast): 11.9 µM | TGI (MCF7 breast): > 100 µM | GI50 (OVCAR-3 ovarian): 14.1 µM | TGI (OVCAR-3 ovarian): > 77 µM | GI50 (HS 578T breast): 4.4 µM | TGI (HS 578T breast): 27 µM | GI50 (SK-MEL-2 melanoma): 15 µM | TGI (SK-MEL-2 melanoma): > 66.4 µM | GI50 (NCI-H23 lung): 5.11 µM | TGI (NCI-H23 lung): > 52.4 µM | GI50 (SF-539 CNS): 2.59 µM | TGI (SF-539 CNS): 17.3 µM | GI50 (HCT-15 colon): > 100 µM | TGI (HCT-15 colon): > 100 µM | GI50 (LOX IMVI melanoma): 15.8 µM | TGI (LOX IMVI melanoma): > 100 µM | GI50 (786-0 renal): 15.9 µM | TGI (786-0 renal): > 100 µM | GI50 (HCC-2998 colon): 10.3 µM | TGI (HCC-2998 colon): 31.8 µM | GI50 (A498 renal): 15.8 µM | TGI (A498 renal): 73.7 µM | GI50 (HCT-116 colon): 10.7 µM | TGI (HCT-116 colon): > 100 µM | GI50 (MDA-MB-231 breast): 21.6 µM | TGI (MDA-MB-231 breast): > 100 µM | GI50 (BT-549 breast): 3.64 µM | TGI (BT-549 breast): 14.6 µM | GI50 (SF-295 CNS): 4.2 µM | TGI (SF-295 CNS): 80.9 µM | GI50 (SNB-75 CNS): 1.13 µM | TGI (SNB-75 CNS): 3.15 µM | GI50 (SK-MEL-28 melanoma): 5.92 µM | TGI (SK-MEL-28 melanoma): > 44.5 µM | GI50 (HL-60(TB) leukemia): 22.6 µM | TGI (HL-60(TB) leukemia): > 100 µM | GI50 (SF-268 CNS): 2.13 µM | TGI (SF-268 CNS): 11.8 µM | GI50 (OVCAR-4 ovarian): 18.4 µM | TGI (OVCAR-4 ovarian): > 100 µM | GI50 (A549 NSCLC): 26.6 µM | TGI (A549 NSCLC): > 100 µM | GI50 (PC-3 prostate): 4.8 µM | TGI (PC-3 prostate): > 100 µM | GI50 (NCI-H522 lung): 4.67 µM | TGI (NCI-H522 lung): 30.7 µM | GI50 (KM12 colon): 6.43 µM | TGI (KM12 colon): 50.1 µM | GI50 (HOP-62 NSCLC): 5.77 µM | TGI (HOP-62 NSCLC): 71.1 µM | GI50 (NCI-H226 lung): 17.9 µM | TGI (NCI-H226 lung): > 100 µM | GI50 (SNB-19 CNS): 4.13 µM | TGI (SNB-19 CNS): 42.8 µM | GI50 (EKVX NSCLC): 3.39 µM | TGI (EKVX NSCLC): > 100 µM | GI50 (SN12C renal): 3.39 µM | TGI (SN12C renal): 25.4 µM | GI50 (DU-145 prostate): 14.2 µM | TGI (DU-145 prostate): 43.8 µM | GI50 (U251 CNS): 3.14 µM | TGI (U251 CNS): > 90.8 µM | GI50 (CAKI-1 renal): > 100 µM | TGI (CAKI-1 renal): > 100 µM | GI50 (RPMI-8226 leukemia): 6.96 µM | TGI (RPMI-8226 leukemia): > 86.4 µM | GI50 (COLO 205 colon): 4.24 µM | TGI (COLO 205 colon): 22.2 µM | GI50 (T-47D breast): 10.1 µM | TGI (T-47D breast): 79.6 µM | GI50 (MOLT-4 leukemia): 25.8 µM | TGI (MOLT-4 leukemia): > 100 µM | GI50 (HT29 colon): 12.6 µM | TGI (HT29 colon): > 75.5 µM | GI50 (OVCAR-5 ovarian): 26.7 µM | TGI (OVCAR-5 ovarian): > 100 µM | GI50 (MDA-MB-435): 5.89 µM | TGI (MDA-MB-435): 23 µM | GI50 (TK-10 renal): 19.2 µM | TGI (TK-10 renal): > 100 µM | GI50 (MALME-3M melanoma): 3.9 µM | TGI (MALME-3M melanoma): 18.6 µM | GI50 (SK-MEL-5 melanoma): 7.91 µM | TGI (SK-MEL-5 melanoma): 23.2 µM | GI50 (M14 melanoma): 41 µM | TGI (M14 melanoma): > 100 µM | GI50 (HOP-92 NSCLC): 4.45 µM | TGI (HOP-92 NSCLC): 50.9 µM | GI50 (OVCAR-8 ovarian): 6.23 µM | TGI (OVCAR-8 ovarian): > 100 µM | GI50 (UO-31 renal): > 100 µM | TGI (UO-31 renal): > 100 µM | GI50 (RXF 393 renal): 19.5 µM | TGI (RXF 393 renal): 86.2 µM | GI50 (K-562 leukemia): 12 µM | TGI (K-562 leukemia): > 100 µM | GI50 (NCI-H460 lung): 21.1 µM | TGI (NCI-H460 lung): > 89.4 µM | GI50 (UACC-62 melanoma): 11.3 µM | TGI (UACC-62 melanoma): 28.7 µM | GI50 (UACC-257 melanoma): 5.93 µM | TGI (UACC-257 melanoma): 37 µM | GI50 (SK-OV-3 ovarian): 52.5 µM | TGI (SK-OV-3 ovarian): > 100 µM | GI50 (NCI/ADR-RES ovarian): > 100 µM | TGI (NCI/ADR-RES ovarian): > 100 µM
